The values below come from patent US11196057B2, “Metal-air cell with performance enhancing additive” (ARIZONA BOARD OF REGENTS ACTING FOR AND ON BEHALF OF …, priority 2010, dated 2021).

Like-named read-outs stand apart in the source and are kept apart here.

Data set [1] in a line: pKa values of different proton sources (protic additives). To be noted: for pKa: water; for pKa (H20): in water.
For data set [2] the following is noted: aqueous system; cited from earlier work.
Data set [3] can be described thus: Properties of host ionic liquid BDMeIm Tf (gravimetric, Cottrell). It counts as physicochemical. As for the experimental part:
A series of protic additives were added into an ionically conductive medium in order to examine the effects of such additives upon oxygen reduction reaction (“ORR”). An aprotic ionic liquid BdMelm:Tf was used as the host for the additive. A photograph of an experimental setup is provided in FIG. 5A, with FIG. 5B showing a cartoon of a close-up of the measurement tube/chamber. […] See e.g., FIG. 5F. Also, the IL had the benefit of the superacidity of Tf, which minimizes solvent leveling effects. Additional benefits of this dry aprotic IL system include also invariant electrode, high reversibility, and high reactivity, as shown in cyclic voltammagrams (CV) in FIG. 5C and the result of the Kouteeky-Levich ([…]) analysis with respect to the number of electrons per O2 vs. potential in FIG. 5D.

As to `OCC(F)(F)F` [2,2,2-trifluoroethanol], in data set [1], the pKa (as a rule, the pH at which an ionisable group is half protonated) came to 12.5.

Turning to `OO` [peroxide], the pKa in data set [2] is recorded as 11.63.

As for `Cc1nccn1C.O=S(=O)(O)C(F)(F)F` [1,2-dimethylimidaozlium triflate], the “pKa (H20)” value in data set [1] worked out at 7.4.

`CCN(C)CC.O=S(=O)(O)C(F)(F)F` [n,n-diethyl-n-methylammonium triflate]: the “pKa (H20)” value in data set [1] was 10.6.

Consider `O.O=S(=O)(O)C(F)(F)F` [hydronium triflate], for which, in data set [1], the “pKa (H20)” value is listed as −1.7.

Take `CCCCN=C(N(C)C)N(C)C` [2-butyl-1,1,3,3-tetramethylguanidinium triflate]: the pKa in data set [1] came out at 13.6.

For the molecule `[O]O` [superoxide], the pKa entry in data set [2] was “about 4.7”.

For the molecule `CCCCn1cc[n+](C)c1C.O=S(=O)([O-])C(F)(F)F` [BDMelm Tf], the density result in data set [3] was “about 1.4 g/mL”. Further, the oxygen solubility entry in data set [3] (measured gravimetrically and through Cottrell) was “about 2.5 mM”.
